Data from paper PMC6992361 (Molecular cancer therapeutics, 2019).

Legend:
[1] = system: 786-O RCC tumor xenograft; assay type: in vivo; settings: 786-O xenograft; sunitinib 50 mg/kg, Ex82 30mg/kg daily by gavage
[2] = system: 786-O RCC tumor xenograft; assay: Arterial spin labeled MRI of tumor blood flow; assay type: in vivo, mouse; settings: day 26 +/- 4 days
[3] = system: 786-O RCC tumor xenograft; assay: Multiplexed immunohistochemistry analysis of tumors; assay type: in vivo, mouse; settings: 786-O xenograft tumors
[4] = system: monolayer of endothelial cells; assay: Transendothelial electrical impedance assay; assay type: cell-based; settings: S1P at 10 nM

SMILES	tumor growth [1]	tumor blood flow (ASL MRI) [2]	S1P1 expression in tumors [3]	percent area of TUNEL [3] [%]	percent area of tumor vessels (CD34) [3] [%]	electrical impedance of endothelial monolayer [4]
CCN(CC)CCNC(=O)c1c(C)[nH]c(/C=C2\C(=O)Nc3ccc(F)cc32)c1C [sunitinib]	slowed tumor growth	lower tumor blood flow than vehicle	significantly reduced	10.9	7.2	
CCCCCCCCCCCCC/C=C/[C@@H](O)[C@@H](N)COP(=O)(O)O [S1P, sphingosine-1-phosphate]						strongly increases electrical impedance
